In patent publication US20210077501A1, “COMPOSITIONS FOR PREVENTING OR TREATING UVEITIS” (Chong Kun Dang Pharmaceutical Corp., priority 2018, published 2021):

How the values were obtained:
[1] = test system: TNFα secretion in LPS-stimulated human monocyte cell lines (THP-1); assay: Suppression of TNFα secretion in LPS-stimulated THP-1 cells (ELISA); assay type: cell-based
Procedure: To identify the efficacy of the inventive compounds on suppressing a TNFα secretion in immune responses, suppression of TNFα production, which was achieved by a treatment with compounds 374, 461, 500, 530 and 532 according to the present invention in LPS-stimulated human monocyte cell lines (THP-1), was quantified by means of an enzyme immuno-assay (ELISA).
Specifically, the THP-1 cell lines (ATCC) were cultured in an RPMI-1640 medium comprising 10% FBS. The cell lines were divided into a 24 well plate at a ratio of 1×10^5 cells per well, then treated with 100 ng/mL PMA (phorbol 12-myristate 13-acetate) for 24 hours, and then differentiated into macrophage. Then, the culture medium was replaced with a new one, then treated with a test drug for 24 hours, and then treated again with 10 ng/mL LPS (E.Coli, O55:B5) for four hours for stimulation. After that, supernatant was taken and used to measure the amount of TNFα secreted from the cells by means of a Human TNFα Instant ELISA kit (eBioscience, BMS223INST) according to a protocol provided by a manufacturer.

reactive T cells = assay: Treg suppression assay: proliferation of reactive T cells (eFluor670 dilution, flow cytometry); assay type: cell-based, mouse; conditions: Teff:Treg 2:1, three days; concentration not specified
Procedure: To identify the efficacy of the inventive compounds on suppressing the proliferation of reactive T cells in immune responses, compounds 255, 280, 374, 416 and 476 according to the present invention were cultured together with reactive T cells and regulatory T cells […], and then the suppressive efficacy of regulatory T cells was measured.
Specifically, a six-week old C57BL6 male mice were supplied from Central Lab Animal Inc., then acclimated for one week, and then used in an experiment. A spleen was isolated from the mouse, and then treated with collagenase D (Roche, 11088866001), such that splenocytes were isolated therefrom. […] were isolated by means of a CD4+CD25+ regulatory T cell isolation kit (Miltenyi Biotec, 130-091-041) according to a protocol provided by a manufacturer. Teff cells were cultured at 37° C. for ten minutes by means of eFluor®670 (Cell proliferation Dye eFluor®670, eBioscience), such that cell membranes were stained. Teff and Treg were divided into a 96 well plate at a ratio of 2:1, and then T cells were activated for three days by means of an anti-CD3E and anti-CD28 mAb magnetic bead (T cell activation/expansion kit, Miltenyi Biotec, 130-093627), such that Treg suppression assay was performed. A test drug was simultaneously treated for three days, during which the assay was performed. The divided amount of eFluor®670 labeled on the Teff cell membranes was measured, such that a degree of proliferation of T cells was evaluated accordingly. An eFluor®670-dilution plot was measured by means of a flow cytometer (FACS LSR Fortessa, BD bioscience). The suppressive ability on T cells proliferation was calculated by means of a following equation.

[2] = test system: CTLA4 (cytotoxic T-lymphocyte-associated protein 4) in the regulatory T cells; assay: CTLA4 expression in regulatory T cells (iTreg) by flow cytometry; assay type: cell-based, mouse; conditions: for level of CTLA4 expression in the T cells (function of regulatory T cells): iTreg, six days treatment, concentration not specified
Procedure: To identify if the compounds according to the present invention regulate a function of regulatory T cells in immune responses, compounds 255, 280, 374, 416 and 476 were treated, and then an expression level of an immune checkpoint receptor CTLA4 (cytotoxic T-lymphocyte-associated protein 4) in the regulatory T cells was measured by means of flow cytometry.
Specifically, a six-week old C57BL6 male mice were supplied from Central Lab Animal Inc., then acclimated for one week, and then used in an experiment. A spleen was isolated from the mouse, and then treated with collagenase D (Roche, 11088866001), such that splenocytes were isolated therefrom. CD4+CD25-T cells were isolated by means of a CD4+CD25+ regulatory T cell isolation kit (Miltenyi Biotec, 130-091-041), and then CD4+CD25-T cells (at a ratio of 5×10^5 cells/well) were treated with an anti-CD3E/anti-CD28 mAb bead (T cell activation/expansion kit, Miltenyi Biotec, 130-093627) and a mouse recombinant TGF-β2 for six days, such that they were differentiated into iTreg. A test drug was simultaneously treated for six days, during which the cells were differentiated into iTreg. After that, the cells were incubated by means of anti-CD4/anti-CD25 mAb (eBioscience, 25-0042-82, 17-0251-82) at 4° C. for 20 minutes, and then labeling was performed. For intracytoplasmic staining, permeabilization was performed by means of Fix/permeabilization buffer (eBioscience, 00-5523-00), then labeling was performed by means of anti-FOXP3-Alexafluor488 (eBioscience, 53-5773-82) and anti-CTLA4-PE (eBioscience, 12-1522-82), and then flow cytometry was performed by means of FACS LSR Fortessa (BD bioscience).

[3] = test system: experimental autoimmune uveitis (EAU) mouse; assay: Clinical grading of uveitis in the EAU mouse (fundoscopy); assay type: in vivo
[4] = test system: experimental autoimmune uveitis (EAU) mouse; assay: FACS of immune cells in retina and draining lymph node of the EAU mouse; assay type: in vivo
[5] = test system: experimental autoimmune uveitis (EAU) mouse; assay: Immunofluorescent staining of immunomarkers in the retina of the EAU mouse; assay type: in vivo
[6] = test system: experimental autoimmune uveitis (EAU) mouse; assay: Real-time PCR of HDAC6 and inflammatory cytokines in the retina of the EAU mouse; assay type: in vivo; conditions: for expression level of HDAC6 / expression level of IL-1β / expression level of IL-17 / expression level of INF-γ / expression level of TNF-α: retina
[7] = test system: experimental autoimmune uveitis (EAU) mouse; assay: ELISA of IFN-γ and IL-17A from spleen mononuclear cells of the EAU mouse; assay type: in vivo
[8] = test system: experimental autoimmune uveitis (EAU) mouse; assay: H&E staining of histopathological lesions in the retina of the EAU mouse; assay type: in vivo; conditions: 0.3% eye drop twice a day, Day 21
[9] = THP-1, LPS, on increasing concentration of compound treatment from 100 nM to 300 nM
[10] = in comparison with LPS-induced control group, THP-1, concentration not specified
[11] = THP-1, LPS, at both 100 nM and 300 nM
[12] = lymph node tissues, eye drop administration group
[13] = lymph nodes, i.p. administration group
[14] = retina tissues, eye drop administration group
[15] = EAU mouse, eye drop administration group
[16] = i.p. administration group (10 or 30 mg/kg once a day)
[17] = spleen MNC stimulated with IRBP peptide 72 hours, eye drop administration group

O=C(NO)c1ccc(CN(C(=O)N2CCOCC2)c2cccc(C(F)(F)F)c2)c(F)c1 [Compound 532, N-(2-fluoro-4-(hydroxycarbamoyl)benzyl)-N-(3-(trifluoromethyl)phenyl)morpholine-4-carboxamide] was tested, and the “level of TNFα secretion” value [1, 9] was “drastically decreased” and the “level of TNFα secretion” value [1, 10] was “excellent effect”.

With O=C(NO)c1ccc(CN(C(=O)N2CCOCC2)c2cccc(Br)c2)cc1 [Compound 255, N-(3-bromophenyl)-N-(4-(hydroxycarbamoyl)benzyl)morpholine-4-carboxamide] the “proliferation of the reactive T cells” value (reactive T cells) was “excellent effect”, the “level of CTLA4 expression in the T cells (function of regulatory T cells)” value (from here on “level of CTLA4 expression in the T cells”) [2] was “excellent effect” and the cytotoxicity ([2]; treated at 1000 nM, data analysis not performed) was “severe cytotoxicity”.

In the case of CCN1CCN(C(=O)N(Cc2ccc(C(=O)NO)cc2)c2cccc(C(F)(F)F)c2)CC1 [Compound 461, 4-ethyl-N-(4-(hydroxycarbamoyl)benzyl)-N-(3-(trifluoromethyl)phenyl)piperazine-1-carboxamide], the “level of TNFα secretion” value [1, 11] is reported as “remarkably decreased down to a level at which no inflammatory response was induced by means of the LPS” and the “level of TNFα secretion” value [1, 10] is reported as “excellent effect”.

In the case of O=C(NO)c1ccc(CN(C(=O)N2CCOCC2)c2ccccn2)cc1 [Compound 280, N-(4-(hydroxycarbamoyl)benzyl)-N-(pyridine-2-yl)morpholine-4-carboxamide], the “proliferation of the reactive T cells” value (reactive T cells) is reported as “excellent effect” and the “level of CTLA4 expression in the T cells” value [2] is reported as “excellent effect”.

In the case of O=C(NO)c1ccc(CN(C(=O)N2CCOCC2)c2cccc(F)c2)cc1 [Compound 530, N-(3-fluorophenyl)-N-(4-(hydroxycarbamoyl)benzyl)morpholine-4-carboxamide], the “level of TNFα secretion” value [1, 9] is reported as “drastically decreased” and the “level of TNFα secretion” value [1, 10] is reported as “excellent effect”.

O=C(NO)c1ccc(CN(C(=O)N2CC(F)(F)C2)c2cccc(C(F)(F)F)c2)cc1 [Compound 476, 3,3-difluoro-N-(4-(hydroxycarbamoyl)benzyl)-N-(3-(trifluoromethyl)phenyl)azetidine-1-carboxamide] was tested, and the “proliferation of the reactive T cells” value (reactive T cells) was “excellent effect” and the “level of CTLA4 expression in the T cells” value [2] was “excellent effect”.

CN1CCN(C(=O)N(Cc2ccc(C(=O)NO)cc2)c2ccc(F)cc2F)CC1 [Compound 416, N-(2,4-difluorophenyl)-N-(4-(hydroxycarbamoyl)benzyl)-4-methylpiperazine-1-carboxamide] was tested, and the “proliferation of the reactive T cells” value (reactive T cells) was “excellent effect” and the “level of CTLA4 expression in the T cells” value [2] was “excellent effect”.

O=C(NO)c1ccc(CN(C(=O)N2CCOCC2)c2cccc(CF)c2)cc1 [Compound 500, N-(3-(fluoromethyl)phenyl)-N-(4-(hydroxycarbamoyl)benzyl)morpholine-4-carboxamide] was tested, and the “level of TNFα secretion” value [1, 11] was “remarkably decreased down to a level at which no inflammatory response was induced by means of the LPS” and the “level of TNFα secretion” value [1, 10] was “excellent effect”.

O=C(NO)c1ccc(CN(C(=O)N2CCOCC2)c2cccc(C(F)(F)F)c2)cc1 [Compound 374, N-(4-(hydroxycarbamoyl)benzyl)-N-(3-(trifluoromethyl)phenyl)morpholine-4-carboxamide] was tested, and the “proliferation of the reactive T cells” value (reactive T cells) was “excellent effect”, the “clinical grade of uveitis” value ([3]; EAU mouse, 0.3% eye drop twice a day from Day 11, Day 21, scale Grade 0-4) was no more than 0.5 Grade and the “decreasing a uveitis lesion” value ([3]; animal model for an induced uveitis disease, summary (FIGS. 4 to 6)) was “excellent effect”. For the same molecule, the “decreasing the number of immune cells in a retina and a lymph node” value ([4]; animal model for an induced uveitis disease, summary (FIGS. 13 to 21)) was “excellent effect”, the “number of IL-IP(+) cells” value [4, 12] was “significantly decreased” and the “number of INF-γ(+)/CD4(+) cells” value [4, 12] was “significantly decreased”. For the same molecule, the “number of INF-γ(+)/CD4(+) cells” value ([4]; lymph node tissues, i.p. administration group) was “significantly decreased”, the “number of CD11b(+) cells” value [4, 13] was “decreased” and the “number of CD19(+) cells” value [4, 13] was “decreased”. The “number of F4/80(+) cells” value [4, 13] was “decreased”, the “number of IL-IP(+) cells” value [4, 14] was “significantly decreased” and the “number of INF-γ(+)/CD4(+) cells” value [4, 14] was “significantly decreased”. For the same molecule, the “number of INF-γ(+)/CD4(+) cells” value ([4]; retina tissues, i.p. administration group, 10 mg/kg) was “significantly decreased”, the “number of INF-γ(+)/CD4(+) cells” value ([4]; retina tissues, i.p. administration group, 30 mg/kg) was “significantly decreased” and the “level of TNFα secretion” value [1, 11] was “remarkably decreased down to a level at which no inflammatory response was induced by means of the LPS”. For the same molecule, the “level of TNFα secretion” value [1, 10] was “excellent effect”, the “B220 (B cell marker) in retina” value [5, 15] was “did not show an obvious change” and the “CD3(+) cell (T cell marker) in retina” value [5, 15] was “significantly decreased to a similar level to that of a normal mouse”. For the same molecule, the “infiltration of CD4(+) immune cells into a retina tissue” value [5, 15] was “clearly decreased and remained only under the retina”, the “inhibiting an infiltration of inflammatory cells” value ([5]; animal model for an induced uveitis disease, summary (FIGS. 7 to 10)) was “excellent effect” and the “inhibiting an expression of inflammatory cytokines in inflammation regions” value ([6]; animal model for an induced uveitis disease, summary (FIG. 12)) was “excellent effect”. For the same molecule, the “expression level of HDAC6” value ([6]; eye drop administration group) was “significantly decreased and recovered to the level of the normal mouse”, the “expression level of IL-1β” value ([6]; eye drop administration group) was “significantly decreased and recovered to the level of the normal mouse” and the “expression level of IL-17” value ([6]; eye drop administration group) was “significantly decreased and recovered to the level of the normal mouse”. The “expression level of INF-γ” value ([6]; eye drop administration group) was “significantly decreased and recovered to the level of the normal mouse”, the “expression level of TNF-α” value ([6]; eye drop administration group) was “significantly decreased and recovered to the level of the normal mouse” and the “expression level of HDAC6” value [6, 16] was “significantly decreased and recovered to the level of the normal mouse”. The “expression level of IL-1β” value [6, 16] was “significantly decreased and recovered to the level of the normal mouse”, the “expression level of IL-17” value [6, 16] was “significantly decreased and recovered to the level of the normal mouse” and the “expression level of INF-γ” value [6, 16] was “significantly decreased and recovered to the level of the normal mouse”. For the same molecule, the “expression level of TNF-α” value [6, 16] was “significantly decreased and recovered to the level of the normal mouse”, the “inhibiting an expression of inflammatory cytokines in a spleen” value ([7]; animal model for an induced uveitis disease, summary (FIG. 11)) was “excellent effect” and the “level of IL-17A” value [7, 17] was “significantly decreased”. The “level of INF-γ” value [7, 17] was “significantly decreased”, the “level of CTLA4 expression in the T cells” value [2] was “excellent effect” and the “inflammatory lesions in retina tissues (H&E)” value [8] was “significantly decreased”.
